The source of these data is ChEMBL document CHEMBL1649426 (J Med Chem, 2011).

For test [1], the system named is Human immunodeficiency virus 1. The test is described as follows: Antiviral activity against HIV1 LAI infected in human MT2 cells assessed as inhibition of virus-induced cytopathic effect by MTT assay. In kind it is functional, organism-based. The settings on record: Human immunodeficiency virus 1, LAI.
Test [2] addresses Protease (Human immunodeficiency virus 1, UniProt Q9YQ12). Kind of test: Inhibition of HIV1 protease. The format is single protein.
In test [3] the test system is Human immunodeficiency virus 1. The test is described as follows: Antiviral activity against wild type HIV-1 ERS104 pre infected in human PHA-PBM cells assessed as inhibition of p24 Gag protein production. The format is functional, organism-based. The conditions noted are these: Human immunodeficiency virus 1, ERS104pre, PBMC.
Test [4] concerns Human immunodeficiency virus 1. Kind of test: Antiviral activity against HIV-1 MDR/B infected in human PHA-PBM cells assessed as inhibition of p24 Gag protein production. In kind it is functional, organism-based. The settings on record: Human immunodeficiency virus 1, MDR/B, PBMC.
Test [5] deals with Human immunodeficiency virus 1. Kind of test: Antiviral activity against HIV-1 MDR/C infected in human PHA-PBM cells assessed as inhibition of p24 Gag protein production. The settings on record: Human immunodeficiency virus 1, MDR/C, PBMC. The format is functional, organism-based.
The test system of test [6] is Human immunodeficiency virus 1. The test is described as follows: Antiviral activity against HIV-1 MDR/G infected in human PHA-PBM cells assessed as inhibition of p24 Gag protein production. The settings on record: Human immunodeficiency virus 1, MDR/G, PBMC. In kind it is functional, organism-based.
Test [7] relates to Human immunodeficiency virus 1. The test is described as follows: Antiviral activity against HIV-1 MDR/TM infected in human PHA-PBM cells assessed as inhibition of p24 Gag protein production. In kind it is functional, organism-based. The conditions noted are these: Human immunodeficiency virus 1, MDR/TM, PBMC.
The test system of test [8] is Human immunodeficiency virus 1. The test is described as follows: Antiviral activity against HIV-1 MDR/MM infected in human PHA-PBM cells assessed as inhibition of p24 Gag protein production. The settings on record: Human immunodeficiency virus 1, MDR/MM, PBMC. In kind it is functional, organism-based.
Test [9] concerns Human immunodeficiency virus 1. Kind of test: Antiviral activity against HIV-1 MDR/JSL infected in human PHA-PBM cells assessed as inhibition of p24 Gag protein production. In kind it is functional, organism-based. The settings on record: Human immunodeficiency virus 1, MDR/JSL, PBMC.

Protease, sequence (Q9YQ12 whole entry): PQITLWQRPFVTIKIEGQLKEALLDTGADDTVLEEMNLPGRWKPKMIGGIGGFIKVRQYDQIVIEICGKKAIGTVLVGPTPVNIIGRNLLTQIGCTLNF

The IC50 is the concentration at which inhibition is half-maximal. In the case of `CC(C)(C)NC(=O)[C@@H]1C[C@@H]2CCCC[C@@H]2CN1C[C@@H](O)[C@H](Cc1ccccc1)NC(=O)[C@H](CC(N)=O)NC(=O)c1ccc2ccccc2n1`, the IC50 in test [1] is 15 nM.

Broadly, the Ki is the equilibrium dissociation constant of an inhibitor or competing ligand from its target. A low value points to tighter binding. For the compound `COc1ccc(S(=O)(=O)N(CC(C)C)C[C@@H](O)[C@H](Cc2ccccc2)NC(=O)O[C@H]2CCO[C@H]3COC[C@H]32)cc1`, the Ki in [2] worked out at 5.3 nM. The IC50 in test [1] was above 1000 nM.

`COc1ccc(S(=O)(=O)N(CC(C)C)C[C@@H](O)[C@H](Cc2ccccc2)NC(=O)O[C@H]2CCO[C@H]3CCC[C@H]32)cc1` displayed an inhibition constant Ki in test [2] of 1.43 nM.

One may read the EC50 as the concentration that produces a half-maximal response. `COc1ccc(S(=O)(=O)N(CC(C)C)C[C@@H](O)[C@H](Cc2ccccc2)NC(=O)O[C@H]2CCO[C@H]3OCC[C@H]32)cc1` registered a Ki in [2] of 0.0027 nM. Moreover, in test [1], the IC50 is 0.5 nM. The 50% effective concentration (EC50) in test [3] came to 1.9 nM; in test [4], 14.5 nM; in test [5] it was 3.7 nM; in [6], 2.6 nM; in test [7] it was 27.5 nM; in test [8], 5 nM. Further, in test [9], the EC50 was 27.5 nM.

Regarding `CC(C)CN(C[C@@H](O)[C@H](Cc1ccccc1)NC(=O)O[C@H]1CCO[C@H]2OCC[C@H]21)S(=O)(=O)c1ccc(N)cc1`, the Ki in [2] was determined as 0.01 nM. Besides, in test [1], the IC50 came to 6.5 nM.

Regarding `COc1ccc(S(=O)(=O)N(CC(C)C)C[C@@H](O)[C@H](Cc2ccccc2)NC(=O)O[C@H]2CO[C@H]3OCC[C@H]3C2)cc1`, the affinity in test [2], expressed as Ki, was 0.11 nM.

`COC(=O)N[C@H](C(=O)N[C@@H](Cc1ccccc1)[C@@H](O)CN(Cc1ccc(-c2ccccn2)cc1)NC(=O)[C@@H](NC(=O)OC)C(C)(C)C)C(C)(C)C` [ATAZANAVIR]: the 50% effective concentration (EC50) came to 2.7 nM in test [3]; 470 nM in test [4]; 39 nM in [5]; 19 nM in test [6]; 75 nM in test [7]; 205 nM in test [8]. In [9], the EC50 turned out to be 293 nM.

On to `COc1ccc(S(=O)(=O)N(CC(C)C)C[C@@H](O)[C@H](Cc2ccccc2)NC(=O)O[C@H]2CCC[C@H]3OCC[C@@H]23)cc1`, for which the inhibitory constant (Ki) in [2] was found to be 0.005 nM. Moreover, the concentration for half-maximal inhibition (IC50) in test [1] turned out to be 8 nM.

`CC(C)CN(C[C@@H](O)[C@H](Cc1ccccc1)NC(=O)O[C@H]1CCO[C@H]2OCC[C@H]21)S(=O)(=O)c1ccc(CO)cc1`: the Ki in test [2] came out at 0.085 nM. In addition, the concentration for half-maximal inhibition (IC50) in test [1] amounted to 4.5 nM.

Take `COc1ccc(S(=O)(=O)N(CC(C)C)C[C@@H](O)[C@H](Cc2ccccc2)NC(=O)O[C@H]2CCC[C@H]3CCC[C@H]32)cc1`: the inhibitory constant (Ki) in [2] stood at 9 nM. Moreover, the 50% inhibitory concentration (IC50) in [1] is above 1000 nM.

Turning to `Cc1cccc(C)c1OCC(=O)N[C@@H](Cc1ccccc1)[C@@H](O)C[C@H](Cc1ccccc1)NC(=O)[C@H](C(C)C)N1CCCNC1=O` [LOPINAVIR], the EC50 in [4] and in test [9] was above 1000 nM throughout.

`COc1ccc(S(=O)(=O)N(CC(C)C)C[C@@H](O)[C@H](Cc2ccccc2)NC(=O)O[C@@H]2CCO[C@@H]3OCC[C@@H]32)cc1`: in test [2], the inhibitory constant (Ki) was determined as 0.068 nM. Besides, in test [1], the IC50 amounted to 19 nM.

Regarding `CC(C)CN(C[C@@H](O)[C@H](Cc1ccccc1)NC(=O)O[C@H]1CCOC1)S(=O)(=O)c1ccc(N)cc1`, the IC50 in test [1] turned out to be 30 nM.
